Activity calls are given as the source filed them. The calls are words filed in the database; no cut-off is given here.
How the values were obtained:
[1] = molecular target: Histamine H3 receptor (Homo sapiens, UniProt Q9Y5N1); experiment: Antagonist activity at human H3 receptor by TR-FRET assay; assay type: functional
[2] = molecular target: T1, Amyloid-beta precursor protein (Homo sapiens, UniProt P05067); experiment: Inhibition of amyloid beta (1 to 42) (unknown origin) self-induced aggregation incubated for 24 hrs by Thioflavin T based fluorometric assay
[3] = molecular target: T1, Amyloid-beta precursor protein; experiment: Inhibition of amyloid beta (1 to 42) (unknown origin) self-induced aggregation at 20 uM incubated for 24 hrs by Thioflavin T based fluorometric assay relative to control
[4] = Antioxidant activity assessed as trolox equivalent antioxidant capacity; assay type: functional
[5] = Metal chelating activity assessed as compound-Cu2+ complex formation by UV-Vis spectroscopic analysis
[6] = Metal chelating activity assessed as compound-Fe3+ complex formation by UV-Vis spectroscopic analysis
[7] = molecular target: T1, Amyloid-beta precursor protein; experiment: Inhibition of amyloid beta (1 to 42) (unknown origin) self-induced aggregation at 20 uM incubated for 24 hrs by transmission electron microscopic analysis
[8] = molecular target: T1, Amyloid-beta precursor protein; experiment: Disaggregation of self-induced amyloid beta (1 to 42) (unknown origin) preformed fibrils assessed as reduction in fluorescence intensity at 20 uM after 24 hrs by thioflavin-T fluorescence assay relative to control; parameters: scale not given: the % may be the effect or the level left
[9] = molecular target: T1, Amyloid-beta precursor protein; experiment: Disaggregation of self-induced amyloid beta (1 to 42) (unknown origin) preformed fibrils at 20 uM measured after 24 hrs by transmission electron microscopic analysis
[10] = Metal chelating activity assessed as formation of Cu2+-compound complex stoichiometry ratio of 2:1 in presence of CuCl2 by Job's plot analysis
[11] = Metal chelating activity assessed as mole fraction required to show 2:1 stoichiometry ratio for compound-Cu2+ complex formation in presence of CuCl2 by Job's plot analysis
[12] = Inhibition of copper-induced amyloid beta (1 to 42) (unknown origin) aggregation at 50 uM measured after 24 hrs by thioflavin T based fluorescence assay
[13] = Inhibition of copper-induced amyloid beta (1 to 42) (unknown origin) aggregation at 50 uM measured after 24 hrs by transmission electron microscopic analysis
[14] = Disaggregation of copper-induced amyloid beta (1 to 42) (unknown origin) preformed fibrils at 50 uM measured after 24 hrs by ThT fluorescence assay
[15] = Disaggregation of copper-induced amyloid beta (1 to 42) (unknown origin) preformed fibrils at 50 uM measured after 24 hrs by transmission electron microscopic analysis

Sequence of Histamine H3 receptor (Q9Y5N1 whole entry): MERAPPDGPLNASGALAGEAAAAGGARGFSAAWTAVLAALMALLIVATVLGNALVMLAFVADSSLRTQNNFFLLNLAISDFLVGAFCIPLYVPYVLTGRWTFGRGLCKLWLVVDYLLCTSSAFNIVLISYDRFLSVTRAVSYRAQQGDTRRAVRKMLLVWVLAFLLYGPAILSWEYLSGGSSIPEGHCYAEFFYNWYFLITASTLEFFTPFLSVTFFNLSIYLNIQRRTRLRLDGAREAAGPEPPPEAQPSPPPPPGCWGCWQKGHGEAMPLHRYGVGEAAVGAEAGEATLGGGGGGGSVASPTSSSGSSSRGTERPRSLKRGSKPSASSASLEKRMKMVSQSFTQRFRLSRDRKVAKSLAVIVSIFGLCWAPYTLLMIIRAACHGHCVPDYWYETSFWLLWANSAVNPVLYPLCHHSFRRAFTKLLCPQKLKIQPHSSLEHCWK
T1 sequence (P05067 whole entry): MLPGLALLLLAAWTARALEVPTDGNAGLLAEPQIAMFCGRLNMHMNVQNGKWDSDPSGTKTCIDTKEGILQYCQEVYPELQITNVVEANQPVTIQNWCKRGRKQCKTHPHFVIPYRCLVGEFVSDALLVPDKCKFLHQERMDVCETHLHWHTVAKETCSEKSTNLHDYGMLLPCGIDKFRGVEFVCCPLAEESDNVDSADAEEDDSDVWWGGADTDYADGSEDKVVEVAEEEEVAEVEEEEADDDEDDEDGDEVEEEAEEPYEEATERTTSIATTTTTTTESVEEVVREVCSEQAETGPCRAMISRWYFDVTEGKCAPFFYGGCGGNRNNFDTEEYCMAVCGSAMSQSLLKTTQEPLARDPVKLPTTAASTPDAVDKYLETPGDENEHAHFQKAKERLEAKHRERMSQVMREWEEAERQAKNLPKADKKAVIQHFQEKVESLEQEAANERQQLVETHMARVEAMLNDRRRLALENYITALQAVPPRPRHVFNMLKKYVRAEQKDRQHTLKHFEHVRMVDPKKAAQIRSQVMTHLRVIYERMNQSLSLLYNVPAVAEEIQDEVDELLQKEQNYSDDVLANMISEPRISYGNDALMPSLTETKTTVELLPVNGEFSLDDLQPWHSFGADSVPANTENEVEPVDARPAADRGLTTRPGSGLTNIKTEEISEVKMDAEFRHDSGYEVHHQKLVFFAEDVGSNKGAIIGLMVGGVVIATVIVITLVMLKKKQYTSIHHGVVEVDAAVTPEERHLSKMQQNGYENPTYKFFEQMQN

IC50 [1] [nM]	IC50 [2] [µM]	inhibition [3] [%]	Activity [5]	Activity [6]	Structure (SMILES)	Activity [4]	other results
178	5.54	89.8			CN1CCN(CCCOc2ccc(/C=C/c3cc(=O)c(O)co3)cc2)CC1	4.05	
2.74	3.26	90.8	Active	Active	O=c1cc(/C=C/c2ccc(OCCCN3CCCCC3)cc2)occ1O	5.22	inhibition [7]: Active; Activity [8]: 29.4%; Activity [9]: Active; Activity [10]: Active; Activity (mole fraction) [11]: 0.682; inhibition [12]: Active; inhibition [13]: Active; Activity [14]: Active; Activity [15]: Active
4.74	2.57	87	Active	Active	Cn1cc(O)c(=O)cc1/C=C/c1ccc(OCCCN2CCCCC2)cc1	1.23	
8.25	2.24	91.4	Active	Active	O=c1cc(/C=C/c2ccc(OCCCN3CCCC3)cc2)occ1O	4.97	inhibition [7]: Active; Activity [8]: 35.1%; Activity [9]: Active; Activity [10]: Active; Activity (mole fraction) [11]: 0.671; inhibition [12]: Active; inhibition [13]: Active; Activity [14]: Active; Activity [15]: Active
353	6.02	75.7			CN1CCN(CCCOc2ccc(/C=C/c3cc(=O)c(O)cn3C)cc2)CC1	0.73	
14.5		15.7			Oc1cccc2ccc(/C=C/c3ccc(OCCCN4CCCCC4)cc3)nc12	0.96	
68.8	4.12	93.3			O=c1cc(/C=C/c2ccc(OCCCN3CCOCC3)cc2)occ1O	4.39	
5.07	3.05	86.8	Active	Active	CCn1cc(O)c(=O)cc1/C=C/c1ccc(OCCCN2CCCCC2)cc1	1.78	
2.65	6.26	74.8			Cc1oc(/C=C/c2ccc(OCCCN3CCCCC3)cc2)cc(=O)c1O	1.74	
85.4	6.18	70.4			CN(C)CCCOc1ccc(/C=C/c2cc(=O)c(O)cn2C)cc1	1.34	
4.91	7.01	74.7			Cc1oc(/C=C/c2ccc(OCCCN3CCCC3)cc2)cc(=O)c1O	2.12	
2.18	2.07	97.6	Active	Active	CCn1cc(O)c(=O)cc1/C=C/c1ccc(OCCCN2CCCC2)cc1	1.43	

Continued, molecule first:

Structure (SMILES)	IC50 [1] [nM]	IC50 [2] [µM]	inhibition [3] [%]	Activity [5]	Activity [6]	Activity [4]	other results
Cn1cc(O)c(=O)cc1/C=C/c1ccc(OCCCN2CCCC2)cc1	3.37	3.29	85.4	Active	Active	1.28	
CCN(CC)CCCOc1ccc(/C=C/c2cc(=O)c(O)cn2C)cc1	7.06	5.38	85	Active	Active	1.43	
CCN(CC)CCCOc1ccc(/C=C/c2cc(=O)c(O)co2)cc1	16.9	3.95	94.6	Active	Active	5.08	
COc1cc(/C=C/C(=O)CC(=O)/C=C/c2ccc(O)c(OC)c2)ccc1O						1.11	
Cc1c(C)c2c(c(C)c1O)CCC(C)(C(=O)O)O2 (centres undefined)						1	
CN(C)CCCOc1ccc(/C=C/c2cc(=O)c(O)co2)cc1	104	4.51	76.7			2.21	
Oc1cccc2ccc(/C=C/c3ccc(OCCCN4CCCC4)cc3)nc12	16		17.6			0.73	
Cn1cc(O)c(=O)cc1/C=C/c1ccc(OCCCN2CCOCC2)cc1	30.1	5.32	71.9			1.35	
CCN(CC)CCCC(C)Nc1ccnc2cc(Cl)ccc12 (centres undefined)							Activity [14]: Active; Activity [15]: Active
O=c1cc(/C=C/c2ccc(O)cc2)occ1O						2.03	

From ChEMBL document CHEMBL4811320, “Design, synthesis and biological evaluation of 2-styryl-5-hydroxy-4-pyrone derivatives and analogues as multiple functional agents with the potential for the treatment of Alzheimer's disease” (Bioorg Med Chem, 2021)
